Data: patent publication US12630498B2 (Genzyme Corporation, priority 2019, dated 2026)

Tests used:
[1] = target: T1, CFTR-mediated transepithelial chloride transport in primary human bronchial epithelial cells from a ΔF508 homozygous CF donor (Homo sapiens, UniProt P13569, DEL508-508); test: TECC24 recording of CFTR-mediated transepithelial chloride transport in CF-HBE cells (AUC fold over DMSO); format: cell-based; conditions: test agent 10 μM, 48 hours incubation, AUC of forskolin-stimulated IEQ relative to DMSO
T1 construct: Primary human bronchial epithelial cells from a ΔF508 homozygous CF donor; host or cells: primary CF-HBE cells, ΔF508 homozygous donor
T1 sequence (P13569 with tags, fused parts or gaps DEL508-508): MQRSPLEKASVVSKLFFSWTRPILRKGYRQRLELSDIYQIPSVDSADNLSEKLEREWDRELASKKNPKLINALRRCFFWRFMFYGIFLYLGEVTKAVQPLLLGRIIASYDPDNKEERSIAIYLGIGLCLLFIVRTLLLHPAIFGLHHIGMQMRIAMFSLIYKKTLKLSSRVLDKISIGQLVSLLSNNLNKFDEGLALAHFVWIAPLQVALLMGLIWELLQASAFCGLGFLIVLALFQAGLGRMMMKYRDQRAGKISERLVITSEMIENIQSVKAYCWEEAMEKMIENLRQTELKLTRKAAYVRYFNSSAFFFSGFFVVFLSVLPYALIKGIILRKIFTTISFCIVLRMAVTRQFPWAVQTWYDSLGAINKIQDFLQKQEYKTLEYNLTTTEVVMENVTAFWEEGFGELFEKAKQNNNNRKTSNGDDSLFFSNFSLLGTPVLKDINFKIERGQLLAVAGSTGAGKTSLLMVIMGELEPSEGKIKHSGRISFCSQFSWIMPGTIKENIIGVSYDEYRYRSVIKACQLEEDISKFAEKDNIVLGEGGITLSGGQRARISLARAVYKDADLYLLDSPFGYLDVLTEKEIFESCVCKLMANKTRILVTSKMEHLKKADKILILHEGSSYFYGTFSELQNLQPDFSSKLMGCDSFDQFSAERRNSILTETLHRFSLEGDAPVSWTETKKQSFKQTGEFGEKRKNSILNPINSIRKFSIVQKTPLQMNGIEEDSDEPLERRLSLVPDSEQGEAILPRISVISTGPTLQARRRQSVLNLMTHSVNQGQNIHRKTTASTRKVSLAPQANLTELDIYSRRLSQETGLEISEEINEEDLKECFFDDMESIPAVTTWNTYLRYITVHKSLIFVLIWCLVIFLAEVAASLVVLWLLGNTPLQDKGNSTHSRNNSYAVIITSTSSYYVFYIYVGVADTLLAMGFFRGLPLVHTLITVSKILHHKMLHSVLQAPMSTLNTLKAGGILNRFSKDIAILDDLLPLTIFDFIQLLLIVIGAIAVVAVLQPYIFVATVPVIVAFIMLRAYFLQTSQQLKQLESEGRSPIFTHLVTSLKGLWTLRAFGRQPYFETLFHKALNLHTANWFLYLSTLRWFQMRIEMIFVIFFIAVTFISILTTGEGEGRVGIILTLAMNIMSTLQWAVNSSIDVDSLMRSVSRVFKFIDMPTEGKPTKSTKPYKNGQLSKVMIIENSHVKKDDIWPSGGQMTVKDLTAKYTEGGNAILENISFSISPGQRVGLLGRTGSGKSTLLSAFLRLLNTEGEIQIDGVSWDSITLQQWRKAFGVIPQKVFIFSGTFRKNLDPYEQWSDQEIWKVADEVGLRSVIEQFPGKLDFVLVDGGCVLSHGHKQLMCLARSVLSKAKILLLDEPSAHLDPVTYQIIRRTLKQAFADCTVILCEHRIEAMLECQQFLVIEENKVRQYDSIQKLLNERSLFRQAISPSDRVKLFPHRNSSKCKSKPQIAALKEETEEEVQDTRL
Method in brief: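 Primary ΔF508/ΔF508 CF-HBE cells on inserts exposed to test agent in IL-13-containing medium for 48 h at 36.5 °C. Current-clamp VT/TEER recording in pH 7.4 HEPES saline with benzamil 10 μM, forskolin 10 μM, then CFTRinh-172 20 μM. AUC of equivalent Cl⁻ current between forskolin and inhibitor, expressed as ratio over vehicle.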

[2] = target: T2, human Cystic Fibrosis Transmembrane Conductance Regulator (CFTR) harboring the ΔF508 mutation (Homo sapiens, UniProt P13569, DEL508-508); test: H441 cell ΔF508-CFTR-HRP cell surface assay (Emax and EC50); format: cell-based; conditions: for Emax: NCI-H441, NA = Not active
T2 construct: expressed in transfected cells; host or cells: H441 carcinoma line (G418-selected)
T2 sequence (P13569 with tags, fused parts or gaps DEL508-508): as above
Method in brief: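 H441 and 41o- bronchial epithelial cells expressing ΔF508-CFTR with an extracellular-loop-4 HRP tag were treated with a 15-point compound series (24.5–0.001 μM) for two nights, H441 at 27° C, 41o- at 37° C with 0.0005 mg/ml doxycycline. Surface HRP luminescence read; % of maximum VX809 signal and EC50 derived.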

SMILES | TECC24 AUC fold over DMSO @10 μM [1] | EC50 [2] [nM] | Emax [2] [%]
CC1([C@H](NC(=O)c2ccc3ccc(C(F)(F)F)cc3c2OCc2ccc(C(F)(F)F)cc2)C(=O)O)CCCC1 [Example 301, (S)-2-(1-methylcyclopentyl)-2-(7-(trifluoromethyl)-1-((4-(trifluoromethyl)benzyl)oxy)-2-naphthamido)acetic Acid] | A (“A” refers to AUC @10 uM >6) | 100 | 217
O=C(N[C@H](C(=O)O)C(c1ccccc1)c1ccccc1)c1ccc2ccccc2c1OCc1nc2ccccc2s1 [Example 212, (S)-2-(1-(benzo[d]thiazol-2-ylmethoxy)-2-naphthamido)-3,3-diphenylpropanoic Acid] | C (“C” refers to AUC @10 uM <4) | 1200 | 141
CCC(C)(C)[C@H](NC(=O)c1ccc2ccc(C)cc2c1OCc1ccc(C(F)(F)F)cc1)C(=O)O [Example 288, (S)-3,3-dimethyl-2-(7-methyl-1-((4-(trifluoromethyl)benzyl)oxy)-2-naphthamido)pentanoic Acid] | A (“A” refers to AUC @10 uM >6) | 100 | 404
O=C(N[C@H](C(=O)O)C(c1ccccc1)c1ccccc1)c1ccc2ccccc2c1OCc1ccc(C(F)(F)F)cc1 [Example 126, (S)-3,3-diphenyl-2-(1-((4-(trifluoromethyl)benzyl)oxy)-2-naphthamido)propanoic Acid] | B (“B” refers to AUC @10 uM between 4-6) | 100 | 214
CC(C)(C)[C@H](NC(=O)c1ccc2ccccc2c1OC[C@H]1CC[C@H](C(F)(F)F)CC1)C(=O)O [Example 222, (2S)-3,3-dimethyl-2-[[1-[[4-(trifluoromethyl)cyclohexyl]methoxy]naphthalene-2-carbonyl]amino]butanoic Acid] | A (“A” refers to AUC @10 uM >6) | 2900 | 154
CC(C)(c1ccccc1)[C@H](NC(=O)c1ccc2ccccc2c1OCc1ccc(C(F)(F)F)cc1)C(=O)O [Example 9, (S)-3-methyl-3-phenyl-2-(1-((4-(trifluoromethyl)benzyl)oxy)-2-naphthamido)butanoic Acid] | C (“C” refers to AUC @10 uM <4) | 1100 | 88.4
CC1(C(NC(=O)c2ccc3ccccc3c2OCc2ccc(S(F)(F)(F)(F)F)cc2)C(=O)O)CCCCC1 (centres unmarked) [Example 48, 2-(1-methylcyclohexyl)-2-(1-((4-(pentafluoro-16-sulfanyl)benzyl)oxy)-2-naphthamido)acetic Acid] | C (“C” refers to AUC @10 uM <4) | 700 | 112
O=C(N[C@@H](Cc1ccc(C(F)(F)F)cc1)C(=O)O)c1ccc2cc(F)ccc2c1OCc1nc2ccccc2s1 [Example 217, (S)-2-(1-(benzo[d]thiazol-2-ylmethoxy)-6-fluoro-2-naphthamido)-3-(4-(trifluoromethyl)phenyl)propanoic Acid] | C (“C” refers to AUC @10 uM <4) | 15900 | 65.8
CC(C)(C)[C@H](NC(=O)c1ccc2ccccc2c1OCc1nc2ccccc2s1)C(=O)O [Example 58, (S)-2-(1-(benzo[d]thiazol-2-ylmethoxy)-2-naphthamido)-3,3-dimethylbutanoic Acid] | C (“C” refers to AUC @10 uM <4) | 2800 | 139
CC(C)(C)[C@H](NC(=O)c1ccc2ccc(Cl)cc2c1OCc1ccc(OC(F)(F)F)cc1)C(=O)O [Example 237, (S)-2-(7-chloro-1-((4-(trifluoromethoxy)benzyl)oxy)-2-naphthamido)-3,3-dimethyl Butanoic Acid] | A (“A” refers to AUC @10 uM >6) | 100 | 275
CC1([C@H](NC(=O)c2ccc3c(F)cccc3c2OCc2ccc(C(F)(F)F)cc2)C(=O)O)CCCC1 [Example 303, (S)-2-(5-fluoro-1-((4-(trifluoromethyl)benzyl)oxy)-2-naphthamido)-2-(1-methylcyclopentyl)acetic Acid] | B (“B” refers to AUC @10 uM between 4-6) | 700 | 174
Cc1ccc2ccc(C(=O)N[C@H](C(=O)O)C(C)(C)C)c(OCc3ccc(C(F)(F)F)cc3)c2c1 [Example 279, (2S)-3,3-dimethyl-2-[[7-methyl-1-[[4-(trifluoromethyl)phenyl]methoxy]naphthalene-2-carbonyl]amino]butanoic Acid] | A (“A” refers to AUC @10 uM >6) | 100 | 348
O=C(N[C@@H](Cc1ccc(C(F)(F)F)cc1)C(=O)O)c1ccc2ccccc2c1OCc1ccc(C(F)(F)F)cc1 [Example 104, (S)-2-(1-((4-(trifluoromethyl)benzyl)oxy)-2-naphthamido)-3-(4-(trifluoromethyl)phenyl)propanoic Acid] | C (“C” refers to AUC @10 uM <4) | 7700 | 77.8
O=C(N[C@@H](Cc1ccccc1)C(=O)O)c1ccc2ccccc2c1OCc1ccccc1C(F)(F)F [Example 93, (1-((2-(trifluoromethyl)benzyl)oxy)-2-naphthoyl)-L-phenylalanine] | C (“C” refers to AUC @10 uM <4) |  | 13.1
CC(C)(C)[C@H](NC(=O)c1ccc2cc(F)ccc2c1OCc1ccc(C(F)(F)F)cc1)C(=O)O [Example 27, (S)-2-(6-fluoro-1-((4-(trifluoromethyl)benzyl)oxy)-2-naphthamido)-3,3-dimethylbutanoic Acid] | B (“B” refers to AUC @10 uM between 4-6) | 600 | 134
CC(C)(C)[C@@H](NC(=O)c1ccc2ccc(C(F)(F)F)cc2c1OCc1ccc(OC(F)(F)F)cc1)C(=O)O [Example 287, (R)-3,3-dimethyl-2-(1-((4-(trifluoromethoxy)benzyl)oxy)-7-(trifluoromethyl)-2-naphthamido)butanoic Acid] | C (“C” refers to AUC @10 uM <4) | 300 | 57.1
O=C(N[C@H](C(=O)O)C1CCCCC1)c1ccc2ccccc2c1OCc1ccc(C(F)(F)F)cc1 [Example 128, (S)-2-cyclohexyl-2-(1-((4-(trifluoromethyl)benzyl)oxy)-2-naphthamido)acetic Acid] | A (“A” refers to AUC @10 uM >6) | 500 | 158
O=C(N[C@@H](Cc1ccccc1)C(=O)O)c1ccc2ccccc2c1OCc1ccc(Cl)c(Cl)c1 [Example 99, (1-((3,4-dichlorobenzyl)oxy)-2-naphthoyl)-L-phenylalanine] | C (“C” refers to AUC @10 uM <4) | 5700 | 83.1
CC(C)(C)[C@@H](NC(=O)c1ccc2ccc(C(F)F)cc2c1OCc1ccc(OC(F)(F)F)cc1)C(=O)O [Example 264, (2R)-2-[[7-(difluoromethyl)-1-[[4-(trifluoromethoxy)phenyl]methoxy]naphthalene-2-carbonyl]amino]-3,3-dimethyl-butanoic Acid] | B (“B” refers to AUC @10 uM between 4-6) | 1800 | 70.7
